Measurements reported in the NIST ThermoML archive (doi:10.1021/je900468u).
Values joined by “and” are separate entries in the source; they are usually repeats but may differ in a detail not shown here. Identical values can stand only once.

Tests used:
[1] = 101 kPa, Liquid; for speed of sound: Pulse-echo method
[2] = refractive index (Na D-line) (dimensionless); settings: 101.33 kPa, Liquid, Standard Abbe refractometry
[3] = xn = mol fraction of the nth substance listed; settings: 101 kPa, Liquid; for speed of sound: Pulse-echo method
[4] = refractive index (Na D-line) (dimensionless); xn = mol fraction of the nth substance listed; settings: 101 kPa, Liquid, Standard Abbe refractometry

c1ccccc1 [benzene]
Settings	mass density, [1]	refractive index, [2]	speed of sound, [1] [m/s]
283.15 K	889.5 kg/m3	1.50765	1371
298.15 K	873.9 kg/m3 and 873.6 kg/m3	1.49774	1299

C1CCCCC1 [cyclohexane]
Settings	mass density, [1] [kg/m3]	refractive index, [2]	speed of sound, [1] [m/s]
283.15 K	787.8	1.43193	1329
298.15 K	773.9	1.4236	1255

C1CCCCCCC1 [cyclooctane]
298.15 K
Settings	mass density [kg/m3]	refractive index	speed of sound [m/s]
[1]	831.5	–	1391
[2]	–	1.45598	–

CCc1ccccc1 [ethylbenzene]
Settings	mass density, [1] [kg/m3]	refractive index, [2]	speed of sound, [1] [m/s]
283.15 K	875.7	1.50129	1382
298.15 K	862.5	1.49304	1319

CC1CCCCC1 [methylcyclohexane]
Settings	mass density, [1] [kg/m3]	refractive index, [2]	speed of sound, [1] [m/s]
283.15 K	777.9	1.42833	1281
298.15 K	765.1	1.42062	1215

CC1CCCCC1 [methylcyclohexane] + Cc1ccccc1
Settings	mass density, [3] [kg/m3]	refractive index, [4]	speed of sound, [3] [m/s]
283.15 K, x1 = 0.05	869.8	1.49797	1363
283.15 K, x1 = 0.0998	863.7	1.49331	1356
283.15 K, x1 = 0.198	852	1.48436	1342
283.15 K, x1 = 0.2951	841	1.47614	1330
283.15 K, x1 = 0.3968	830.3	1.46797	1320
283.15 K, x1 = 0.4959	820.3	1.46042	1311
283.15 K, x1 = 0.5973	810.7	1.45319	1302
283.15 K, x1 = 0.697	801.8	1.44643	1296
283.15 K, x1 = 0.7954	793.5	1.44018	1290
283.15 K, x1 = 0.8932	785.8	1.4342	1285
283.15 K, x1 = 0.9487	781.6	1.43118	1283
283.15 K, x1 = 1	777.9	1.42833	1281
298.15 K, x1 = 0.05	855.9	1.48937	1297
298.15 K, x1 = 0.0998	849.9	1.48481	1290
298.15 K, x1 = 0.198	838.2	1.47597	1276
298.15 K, x1 = 0.2951	827.4	1.4678	1264
298.15 K, x1 = 0.3968	816.8	1.45982	1253
298.15 K, x1 = 0.4959	806.9	1.45225	1244
298.15 K, x1 = 0.5973	797.4	1.44519	1236
298.15 K, x1 = 0.697	788.6	1.4385	1229
298.15 K, x1 = 0.7954	780.4	1.43233	1223
298.15 K, x1 = 0.8932	772.7	1.42635	1219
298.15 K, x1 = 0.9487	768.6	1.42344	1216
298.15 K, x1 = 1	765.1	1.42062	1215
